IC50 data for 17 compounds are collected here from US11332473B2, “Substituted pyrazolo[3,4-d]pyrimidines as Wee1 inhibitors” (NUVATION BIO INC., priority 2019, dated 2022).

The target in one experiment is WEE1 kinase enzyme (Homo sapiens (Human), UniProt P30291). As to the kind of experiment: WEE1 IC50 determination, LanthaScreen Terbium Labeled TR-FRET kinase assay. To be noted: WEE1 enzyme 1 nM, ATP 10 μM. It counts as biochemical. On the procedure: IC50 values of compounds against WEE1 kinase enzyme were determined by LanthaScreen™ Terbium Labeled TR-FRET assay. Kinase assays were performed in 1X kinase buffer (#PV6135, Invitrogen, Life Technologies Grand Island, N.Y.) where total reaction volume was 10 μL in low-volume 384-well plates (#4511, Corning). Serially diluted compounds (3-fold) were incubated with WEE1 Enzyme (1 nM) (#PR7373A, Invitrogen, Life Technologies, Grand Island, N.Y.) for 10 min; a mixture of ATP (10 μM) (#A1852, Sigma, St. Louis, Mo.) and fluorescent-PolyGT substrate (200 nM) (#PV3610, Invitrogen, Life Technologies Grand Island, N.Y.) was added and incubated in dark at room temperature for 1 h. After 1 h, 10 μL stop solution containing Terbium labeled antibody (4 nM) (#PV3529, Invitrogen, Life Technologies Grand Island, N.Y.) and EDTA (#E5134, Sigma, St. Louis, Mo.) (20 mM) in TR-FRET dilution buffer (#PV3574, Invitrogen, Life Technologies Grand Island, N.Y.) was added. Readings were taken in a Synergy Neo Plate reader (BioTek, Winooski, Vt.) at single excitation of 340 nm and dual emission at 495 nm and 520 nm respectively.
The % activity of test samples was calculated as (Sample−Min)*100/(Max−Min). [Max: DMSO control, complete reaction with enzyme & DMSO and Min: No enzyme & DMSO].
A general note: In TR-FRET formats the signal depends on donor and acceptor labels being close together.

A further experiment concerns A427 cells. The experiment can be described thus: Cytotoxicity assay in A427 cell line (resazurin). The class given is cell-based. To be noted: Homo sapiens, A-427; A427 lung epithelial cell line, 72 hr, inhibition of proliferation. How it is done:
A427 (HTB-53; ATCC), a lung epithelial cell line, was seeded in medium (MEM, 41090101; Gibco) at a cell count of 1500 cells per 100 μL per well in a 96 well edge plate (167425; ThermoFisher). Cells were allowed to grow at 37° C. for 24 hr in 5% CO2 environment (culture conditions) in a Nuaire incubator (humidified). Serially diluted test compounds (100 μL) within the desired testing concentration ranges were added to the culture plate and the cells were further incubated in culture conditions for 72 hr. The experiment was terminated at the designated incubation time by replacing the medium with 100 μL of 1 mM of resazurin (R7017; Sigma) prepared in culture medium, and the plates were further incubated in culture conditions for 4-6 hr. Fluorescence was recorded using a multimodal plate reader (Biotek Synergy Neo) at an excitation wavelength of 535 nm and emission wavelength of 590 nm to obtain relative fluorescence units. Data were analysed as follows: the background fluorescence (blank containing only medium) value was subtracted from each reading and normalized with the vehicle control (DMSO treated cells) to obtain percent survival/proliferation. Percent survival was subtracted from 100 to get the percent inhibition of proliferation which was used to calculate IC50 values. Potency of compounds in other cell lines (such as A549, AsPc-1, Panc 10.05, A172, U-87MG) may be determined in an analogous manner.
On the technique in general: Resazurin is reduced to fluorescent resorufin, in cell work by metabolically active cells.

For another experiment, the target named is PKMYT1 kinase (Homo sapiens (Human), UniProt Q99640). The experiment can be described thus: PKMYT1 IC50 determination, HotSpot Kinase Assay. To be noted: 10 μM ATP, 33P-ATP, Myelin Basic Protein substrate. The class given is biochemical. How it is done: Inhibition of PKMYT1 kinase activity by test compounds was measured by the HotSpot Kinase Assay at Reaction Biology Corporation (Malvern, Pa.). Briefly, Myelin Basic Protein substrate was prepared in Reaction Buffer (20 mM Hepes (pH 7.5), 10 mM MgCl2, 1 mM EGTA, 0.01% Brij35, 0.02 mg/mL BSA, 0.1 mM Na3VO4, 2 mM DTT, 1% DMSO). PKMYT1 kinase was delivered into the substrate solution and gently mixed. Test compounds in 100% DMSO were added into the kinase reaction mixture by Acoustic technology (Echo550; nanoliter range) and incubated for 20 min at room temperature. ^33P-ATP was delivered into the reaction mixture to initiate the reaction. Reactions were carried out at 10 μM ATP. After a 2 hour incubation at room temperature, kinase activity was detected by P81 filter-binding method. […] A nonlinear regression model with a sigmoidal dose response and variable slope within GraphPad Prism (GraphPad Software, San Diego, Calif.) was used to calculate the IC50 value of individual test compounds.
Chain of PKMYT1 kinase (Q99640 whole entry): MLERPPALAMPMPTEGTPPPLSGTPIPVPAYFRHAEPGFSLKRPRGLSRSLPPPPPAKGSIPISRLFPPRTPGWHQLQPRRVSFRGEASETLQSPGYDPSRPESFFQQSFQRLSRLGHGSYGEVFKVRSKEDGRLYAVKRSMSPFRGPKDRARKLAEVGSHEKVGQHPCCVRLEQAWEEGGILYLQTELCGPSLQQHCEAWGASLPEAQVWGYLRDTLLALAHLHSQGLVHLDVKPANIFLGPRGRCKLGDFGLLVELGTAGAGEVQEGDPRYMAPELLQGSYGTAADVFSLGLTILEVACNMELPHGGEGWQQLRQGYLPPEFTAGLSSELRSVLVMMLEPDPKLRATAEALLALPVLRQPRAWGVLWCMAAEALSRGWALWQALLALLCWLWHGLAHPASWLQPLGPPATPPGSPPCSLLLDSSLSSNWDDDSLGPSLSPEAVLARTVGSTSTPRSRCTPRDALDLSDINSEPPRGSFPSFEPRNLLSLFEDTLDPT

Chain of WEE1 kinase enzyme (P30291 whole entry): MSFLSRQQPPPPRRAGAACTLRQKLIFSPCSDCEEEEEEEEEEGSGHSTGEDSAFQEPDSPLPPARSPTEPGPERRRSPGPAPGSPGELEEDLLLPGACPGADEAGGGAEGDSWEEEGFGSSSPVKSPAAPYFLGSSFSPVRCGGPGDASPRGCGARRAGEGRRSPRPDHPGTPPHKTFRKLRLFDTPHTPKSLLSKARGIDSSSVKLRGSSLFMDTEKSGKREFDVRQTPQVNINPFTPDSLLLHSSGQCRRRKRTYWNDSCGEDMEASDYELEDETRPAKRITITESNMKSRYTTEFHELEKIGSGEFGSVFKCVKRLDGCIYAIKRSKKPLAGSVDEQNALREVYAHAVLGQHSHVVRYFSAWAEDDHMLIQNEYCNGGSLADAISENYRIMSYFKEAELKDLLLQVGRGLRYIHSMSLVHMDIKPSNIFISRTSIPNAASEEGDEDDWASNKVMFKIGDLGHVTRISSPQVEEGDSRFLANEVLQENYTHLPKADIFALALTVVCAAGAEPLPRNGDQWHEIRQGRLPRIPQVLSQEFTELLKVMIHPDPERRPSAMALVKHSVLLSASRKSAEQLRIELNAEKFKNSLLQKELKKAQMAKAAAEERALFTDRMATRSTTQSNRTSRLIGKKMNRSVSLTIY

Regarding `CCn1c(=O)c2cnc(Nc3ccc4c(c3)CCNC4(C)C)nc2n1-c1cccc(C2(C#N)CC2)n1` [1.39, 1-(6-(6-(1,1-dimethyl-1,2,3,4-tetrahydroisoquinolin-6-ylamino)-2-ethyl-3-oxo-2,3-dihydro-1H-pyrazolo[3,4-d]pyrimidin-1-yl)pyridin-2-yl)cyclopropanecarbonitrile], the IC50 turned out to be 1 nM at WEE1 kinase enzyme and 510 nM with A427 cells.

As for `CCn1c(=O)c2cnc(Nc3ccc4c(c3)CNCC4(C)C)nc2n1-c1cccc(C2(C#N)CC2)n1` [1.40, 1-(6-(6-((4,4-dimethyl-1,2,3,4-tetrahydroisoquinolin-7-yl)amino)-2-ethyl-3-oxo-2,3-dihydro-1H-pyrazolo[3,4-d]pyrimidin-1-yl)pyridin-2-yl)cyclopropane-1-carbonitrile], the figures for the IC50 at WEE1 kinase enzyme and against PKMYT1 kinase were 4 nM and 121 nM, respectively.

Consider `CC(C)(F)c1nc(-n2c3nc(Nc4ccc5c(c4)CCNC5(C)C)ncc3c(=O)n2C2CC2)ccc1F` [1.5, 2-cyclopropyl-6-((1,1-dimethyl-1,2,3,4-tetrahydroisoquinolin-6-yl)amino)-1-(5-fluoro-6-(2-fluoropropan-2-yl)pyridin-2-yl)-1,2-dihydro-3H-pyrazolo[3,4-d]pyrimidin-3-one], for which the IC50 on WEE1 kinase enzyme was 5 nM; against PKMYT1 kinase, 5500 nM; in the experiment with A427 cells, 7600 nM.

In the case of `CC(C)n1c(=O)c2cnc(Nc3ccc4c(c3)CCNC4(C)C)nc2n1-c1ccc(F)c(C(C)(C)O)n1` [1.251, 6-((1,1-dimethyl-1,2,3,4-tetrahydroisoquinolin-6-yl)amino)-1-(5-fluoro-6-(2-hydroxypropan-2-yl)pyridin-2-yl)-2-isopropyl-1,2-dihydro-3H-pyrazolo[3,4-d]pyrimidin-3-one], the IC50 worked out at 7 nM at WEE1 kinase enzyme, 6690 nM on PKMYT1 kinase and 12400 nM with A427 cells.

On to `CCn1c(=O)c2cnc(Nc3ccc4c(c3)CCNC4(C)C)nc2n1-c1nc(C(C)(C)C#N)ccc1F` [1.335, 2-(6-(6-(1,1-dimethyl-1,2,3,4-tetrahydroisoquinolin-6-ylamino)-2-ethyl-3-oxo-2,3-dihydro-1H-pyrazolo[3,4-d]pyrimidin-1-yl)-5-fluoropyridin-2-yl)-2-methylpropanenitrile], for which the IC50 worked out at 5 nM on WEE1 kinase enzyme and 4730 nM with A427 cells.

For `CCn1c(=O)c2cnc(Nc3ccc4c(c3)CCNC4)nc2n1-c1cccc(C2(C#N)CC2)n1` [1.37, 1-(6-(2-ethyl-3-oxo-6-((1,2,3,4-tetrahydroisoquinolin-6-yl)amino)-2,3-dihydro-1H-pyrazolo[3,4-d]pyrimidin-1-yl)pyridin-2-yl)cyclopropane-1-carbonitrile], the IC50 on WEE1 kinase enzyme is 13 nM; against PKMYT1 kinase, 691 nM; with A427 cells, 660 nM.

Turning to `CC(C)n1c(=O)c2cnc(Nc3ccc4c(c3)CNCC4)nc2n1-c1csc(C2CC2)n1` [1.465, 1-(2-cyclopropylthiazol-4-yl)-2-isopropyl-6-((1,2,3,4-tetrahydroisoquinolin-7-yl)amino)-1,2-dihydro-3H-pyrazolo[3,4-d]pyrimidin-3-one], the IC50 on WEE1 kinase enzyme was 45 nM; against PKMYT1 kinase, above 30000 nM; in the experiment with A427 cells it was above 30000 nM.

Take `N#CC1(c2cccc(-n3c4nc(Nc5ccc6c(c5)CNCC6)ncc4c(=O)n3CC(F)(F)F)n2)CC1` [1.32, 1-(6-(3-oxo-6-(1,2,3,4-tetrahydroisoquinolin-7-ylamino)-2-(2,2,2-trifluoroethyl)-2,3-dihydro-1H-pyrazolo[3,4-d]pyrimidin-1-yl)pyridin-2-yl)cyclopropanecarbonitrile]: the IC50 on WEE1 kinase enzyme was 8 nM; against PKMYT1 kinase, 767 nM; in the experiment with A427 cells, 870 nM.

Take `CC(C)n1c(=O)c2cnc(Nc3ccc4c(c3)CCNC4)nc2n1-c1csc(C2CC2)n1` [1.464, 1-(2-cyclopropylthiazol-4-yl)-2-isopropyl-6-((1,2,3,4-tetrahydroisoquinolin-6-yl)amino)-1,2-dihydro-3H-pyrazolo[3,4-d]pyrimidin-3-one]: the results for the IC50 at WEE1 kinase enzyme, on PKMYT1 kinase and in the experiment with A427 cells were 49 nM, 28800 nM and 24600 nM, respectively.

For `CC(C)n1c(=O)c2cnc(Nc3ccc4c(c3)CCNC4)nc2n1-c1cccc(C2(CF)CC2)n1` [1.91, 1-(6-(1-(fluoromethyl)cyclopropyl)pyridin-2-yl)-2-isopropyl-6-((1,2,3,4-tetrahydroisoquinolin-6-yl)amino)-1,2-dihydro-3H-pyrazolo[3,4-d]pyrimidin-3-one], the IC50 on WEE1 kinase enzyme came to 3 nM; against PKMYT1 kinase, 6920 nM.

As for `CC(C)n1c(=O)c2cnc(Nc3ccc4c(c3)CCNC4)nc2n1-c1nc(C(C)(C)C#N)ccc1F` [1.321, 2-(5-fluoro-6-(2-isopropyl-3-oxo-6-(1,2,3,4-tetrahydroisoquinolin-6-ylamino)-2,3-dihydro-1H-pyrazolo[3,4-d]pyrimidin-1-yl)pyridin-2-yl)-2-methylpropanenitrile], the values for the half-inhibitory concentration (IC50) at WEE1 kinase enzyme, against PKMYT1 kinase and with A427 cells were 13 nM, 11200 nM and 3540 nM, respectively.

As for `CCn1c(=O)c2cnc(Nc3ccc4c(c3)CCNC4(C)C)nc2n1-c1ccnc(C2(C#N)CC2)c1` [1.63, 1-(4-(6-((1,1-dimethyl-1,2,3,4-tetrahydroisoquinolin-6-yl)amino)-2-ethyl-3-oxo-2,3-dihydro-1H-pyrazolo[3,4-d]pyrimidin-1-yl)pyridin-2-yl)cyclopropane-1-carbonitrile], the IC50 at WEE1 kinase enzyme was 18 nM; with A427 cells, 17200 nM.

`CC(C)n1c(=O)c2cnc(Nc3ccc4c(c3)CNCC4)nc2n1-c1nc(C(C)(C)C#N)ccc1F` [1.322, 2-(5-fluoro-6-(2-isopropyl-3-oxo-6-(1,2,3,4-tetrahydroisoquinolin-7-ylamino)-2,3-dihydro-1H-pyrazolo[3,4-d]pyrimidin-1-yl)pyridin-2-yl)-2-methylpropanenitrile]: the 50% inhibitory concentration (IC50) against PKMYT1 kinase is 7490 nM.

For the compound `CC(C)n1c(=O)c2cnc(Nc3ccc4c(c3)CNCC4)nc2n1-c1ccc(F)c(C(C)(C)O)n1` [1.250, 1-(5-fluoro-6-(2-hydroxypropan-2-yl)pyridin-2-yl)-2-isopropyl-6-((1,2,3,4-tetrahydroisoquinolin-7-yl)amino)-1,2-dihydro-3H-pyrazolo[3,4-d]pyrimidin-3-one], the values for the IC50 at WEE1 kinase enzyme and on PKMYT1 kinase were 8 nM and 13500 nM, respectively.

For `CCn1c(=O)c2cnc(Nc3ccc4c(c3)CNCC4)nc2n1-c1ccc(F)c(C(C)(C)O)n1` [1.262, 2-ethyl-1-(5-fluoro-6-(2-hydroxypropan-2-yl)pyridin-2-yl)-6-((1,2,3,4-tetrahydroisoquinolin-7-yl)amino)-1,2-dihydro-3H-pyrazolo[3,4-d]pyrimidin-3-one], the IC50 on WEE1 kinase enzyme turned out to be 8 nM; against PKMYT1 kinase it was 16800 nM.

As for `CC(C)n1c(=O)c2cnc(Nc3ccc4c(c3)CNCC43CC3)nc2n1-c1ccc(F)c(C(C)(C)O)n1` [1.254, 6-((2′,3′-dihydro-1′H-spiro[cyclopropane-1,4′-isoquinolin]-7′-yl)amino)-1-(5-fluoro-6-(2-hydroxypropan-2-yl)pyridin-2-yl)-2-isopropyl-1,2-dihydro-3H-pyrazolo[3,4-d]pyrimidin-3-one], the IC50 came out at 140 nM on WEE1 kinase enzyme and 3560 nM against PKMYT1 kinase.

For the compound `CCn1c(=O)c2cnc(Nc3ccc4c(c3)CCNC43CC3)nc2n1-c1cccc(C2(C#N)CC2)n1` [1.42, 1-(6-(6-(2′,3′-dihydro-1^1H-spiro[cyclopropane-1,4′-isoquinoline]-7′-ylamino)-2-ethyl-3-oxo-2,3-dihydro-1H-pyrazolo[3,4-d]pyrimidin-1-yl)pyridin-2-yl)cyclopropanecarbonitrile], the values for the IC50 at WEE1 kinase enzyme and with A427 cells were 1 nM and 255 nM, respectively.

A word on the IC50: it is the concentration that inhibits the measured activity by half.
